Results reported in US20090325933A1, “Pyrimidinone Derivatives and Their Use as a Drug” (Ipsen Pharma S.A.S., priority 2006, published 2009).
Where two headings read alike, the source gives them in different places.

Molecular target: T1, human CB2 receptors (Homo sapiens, UniProt P34972)
T1 construct: expressed in transfected cells; membrane preparations
Test: Affinity for human CB2 cannabinoid receptors: inhibition of [3H]-CP55940 binding to transfected CHO-K1 cell membranes
Conditions: inhibition constant value range, [3H]-CP55940 1 nM, Cheng-Prusoff
Procedure: The affinity of the compounds of the present invention for the different sub-types of cannabinoid receptors was measured according to procedures analogous to those described hereafter for the human CB2 receptor.
Study of the Affinity of the Compounds for the Human CB2 Cannabinoid Receptors:
The affinity of the compounds of the invention for the human CB2 receptors is determined by measuring the inhibition of the binding of [^3H]-CP55940 to transfected CHO-K1 cell membrane preparations.
The CHO-K1 cells expressing the human CB2 receptors in stable fashion are cultured in an RPMI 1640 medium containing 10% foetal calf serum, 2 mM of glutamine, 100 U/ml of penicillin, 0.1 mg/ml of streptomycin and 0.5 mg/ml of G418. The cells are collected with 0.5 mM of EDTA and centrifuged at 500 g for 5 minutes at 4° C. The pellet is re-suspended in phosphate buffered saline medium (PBS) and centrifuged at 500 g for 5 minutes at 4° C. The pellet is re-suspended in a Tris 50 mM buffer medium at pH 7.4 and centrifuged at 500 g for 5 minutes at 4° C. The cells are lysed by sonication and centrifuged at 39,000 g for 10 minutes at 4° C. The pellet is re-suspended in the Tris 50 mM buffer medium at pH 7.4 and centrifuged at 50,000 g for 10 minutes at 4° C. The membranes obtained in this last pellet are stored at −80° C.
Measurement of the competitive inhibition of the binding of the [^3H]-CP55940 to the CB2 receptors is carried out in duplicate using 96-well polypropylene plates. The cell membranes (10 μg of proteins/well) are incubated with the [^3H]-CP55940 (1 nM) for 60 minutes at 25° C. in a Tris-HCl 50 mM buffer medium, pH 7.4, comprising 0.1% bovine serum albumin (BSA), 5 mM of MgCl2, and 50 μg/ml of bacitracin.
The bound [^3H]-CP55940 is separated from the free [^3H]-CP55940 by filtration through GF/C glass fibre filter plates (Unifilter, Packard) pre-impregnated with 0.1% polyethylenimine (P.E.I.), using a Filtermate 196 (Packard). The filters are washed with Tris-HCl 50 mM buffer, pH 7.4 at 0-4° C. and the radioactivity present is determined using a counter (Packard Top Count).
The specific binding is obtained by subtracting the non-specific binding (determined in the presence of 0.1 μM of WIN55212-2 from the total binding). The data are analyzed by computer-assisted non-linear regression (MDL). For each test, a Cheng-Prusoff correction is made in order to convert the IC50 to the inhibition constant, Ki.
where [L] is the concentration of the radioligand used in the test and Kd is the radioligand equilibrium dissociation constant.

T1 sequence (P34972 whole entry): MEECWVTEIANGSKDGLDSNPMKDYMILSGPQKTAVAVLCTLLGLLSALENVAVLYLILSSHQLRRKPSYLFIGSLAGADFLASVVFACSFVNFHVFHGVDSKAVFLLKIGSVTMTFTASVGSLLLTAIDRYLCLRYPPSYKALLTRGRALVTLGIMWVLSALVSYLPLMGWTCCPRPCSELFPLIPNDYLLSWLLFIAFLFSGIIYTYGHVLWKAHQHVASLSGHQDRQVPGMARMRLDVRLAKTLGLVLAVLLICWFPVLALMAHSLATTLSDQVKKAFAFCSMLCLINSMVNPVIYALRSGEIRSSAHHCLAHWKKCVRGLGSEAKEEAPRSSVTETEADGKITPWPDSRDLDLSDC

Ki (read-out: Ki < 5 μM) [µM] | Ki (read-out: Ki < 0.5 μM) [µM] | Structure (SMILES)
< 5 | – | CC(C)(C)c1cc2nc(-c3ccc(-c4ccccc4)cc3)n(CCN3CCCCC3)c(=O)c2s1 [Example 57]
< 5 | – | Cc1ccc(CCn2c(-c3ccc(-c4ccccc4)cc3)nc3ccsc3c2=O)cc1C [Example 9]
< 5 | – | O=c1c2sccc2nc(-c2ccc(-c3cccs3)cc2)n1CCC1CCOCC1 [Example 19]
< 5 | – | CC(C)(C)c1ccc(-c2ccc(-c3nc4ccsc4c(=O)n3CCN3CCCCC3)cc2)cc1 [Example 41]
< 5 | < 0.5 | O=c1c2sccc2nc(-c2ccc(-c3cccs3)cc2)n1CCN1CCOCC1 [Example 40]
< 5 | < 0.5 | O=c1c2sccc2nc(-c2ccc(C3CCCCC3)cc2)n1CCC1CCOCC1 [Example 17]
< 5 | – | O=c1c2sc3ccccc3c2nc(-c2ccc(-c3ccccc3)cc2)n1CCC1CCOCC1 [Example 22]
< 5 | < 0.5 | CC1CCN(CCn2c(-c3ccc(-c4ccccc4)cc3)nc3ccsc3c2=O)CC1 [Example 43]
< 5 | – | Cc1ccccc1CCn1c(-c2ccc(-c3ccccc3)cc2)nc2ccsc2c1=O [Example 8]
< 5 | < 0.5 | O=C(c1ccccc1)c1ccc(-c2nc3ccsc3c(=O)n2CCN2CCOCC2)cc1 [Example 30]
< 5 | < 0.5 | COc1ccccc1-c1ccc(-c2nc3ccsc3c(=O)n2CCN2CCCCC2)cc1 [Example 76]
< 5 | < 0.5 | O=c1c2sccc2nc(-c2ccc(-c3ccccc3)cc2)n1CCC1=CCCCC1 [Example 71]
< 5 | < 0.5 | Cc1cc2nc(-c3ccc(-c4ccccc4C(F)(F)F)cc3)n(CCN3CCCCC3)c(=O)c2s1 [Example 83]
< 5 | < 0.5 | Cc1ccccc1-c1ccc(-c2nc3ccsc3c(=O)n2CCN2CCCCC2)cc1 [Example 54]
< 5 | < 0.5 | O=c1c2sccc2nc(-c2ccc(-c3ccccc3)cc2)n1CCN1CCOCC1 [Example 27]
< 5 | < 0.5 | O=c1c2sccc2nc(-c2ccc(C3CCCCC3)cc2)n1CCC1CCCCC1 [Example 16]

Ki (read-out: Ki < 5 μM) [µM] | Ki (read-out: Ki < 0.5 μM) [µM] | Structure (SMILES)
< 5 | – | O=c1c2sccc2nc(-c2ccc(-c3ccccc3)cc2)n1CCc1cccnc1 [Example 14]
< 5 | < 0.5 | O=c1c2sccc2nc(-c2ccc(-c3cccc(C(F)(F)F)c3)cc2)n1CCN1CCCCC1 [Example 74]
< 5 | < 0.5 | Cc1cc2nc(-c3ccc(-c4cccc(F)c4)cc3)n(CCN3CCCCC3)c(=O)c2s1 [Example 85]
< 5 | < 0.5 | O=c1c2sc(-c3ccccc3)cc2nc(-c2ccc(-c3ccccc3)cc2)n1CCN1CCCCC1 [Example 58]
< 5 | < 0.5 | O=c1c2sccc2nc(-c2ccc(C3CCCCC3)cc2)n1CCN1CCCCC1 [Example 36]
< 5 | < 0.5 | O=c1c2sccc2nc(-c2ccc(-c3cccs3)cc2)n1CCN1CCCCC1 [Example 39]
< 5 | < 0.5 | O=c1c2sccc2nc(-c2ccc(-c3cccc(F)c3)cc2)n1CCN1CCCCC1 [Example 63]
< 5 | < 0.5 | O=c1c2sccc2nc(-c2ccc(Cc3ccccc3)cc2)n1CCN1CCCCC1 [Example 32]
< 5 | < 0.5 | O=C1c2ccccc2C(=O)c2cc(-c3nc4ccsc4c(=O)n3CCN3CCCCC3)ccc21 [Example 25]
< 5 | < 0.5 | COc1cccc(-c2ccc(-c3nc4cc(C)sc4c(=O)n3CCN3CCCCC3)cc2)c1 [Example 88]
< 5 | < 0.5 | Cc1cc2nc(-c3ccc(-c4c(C)cccc4C)cc3)n(CCN3CCCCC3)c(=O)c2s1 [Example 91]
< 5 | < 0.5 | Cc1cccc(-c2ccc(-c3nc4cc(C)sc4c(=O)n3CCN3CCCCC3)cc2)c1 [Example 84]
< 5 | – | O=c1c2ccsc2nc(-c2ccc(-c3ccccc3)cc2)n1CCN1CCOCC1 [Example 48]
< 5 | < 0.5 | O=c1c2sccc2nc(-c2ccc(C3CCCCC3)cc2)n1CCN1CCCC1 [Example 35]
< 5 | < 0.5 | Cc1cc(C)cc(-c2ccc(-c3nc4ccsc4c(=O)n3CCN3CCCCC3)cc2)c1 [Example 80]

The next lines start with the molecule.

Structure (SMILES) | Ki (read-out: Ki < 5 μM) [µM] | Ki (read-out: Ki < 0.5 μM) [µM]
O=C(c1ccccc1)c1ccc(-c2nc3ccsc3c(=O)n2CCN2CCCCC2)cc1 [Example 29] | < 5 | < 0.5
Cc1cc2nc(-c3ccc(-c4cccc(C(F)(F)F)c4)cc3)n(CCN3CCCCC3)c(=O)c2s1 [Example 87] | < 5 | < 0.5
O=c1c2sccc2nc(-c2ccc(-c3ccccc3)cc2)n1CCc1ccccc1 [Example 13] | < 5 | < 0.5
Cc1cc2nc(-c3ccc(-c4ccccc4)cc3)n(CCN3CCCCC3)c(=O)c2s1 [Example 61] | < 5 | < 0.5
COc1ccccc1CCn1c(-c2ccc(-c3ccccc3)cc2)nc2ccsc2c1=O [Example 1] | < 5 | –
O=c1c2sccc2nc(-c2ccc(-c3c(F)cccc3F)cc2)n1CCN1CCCCC1 [Example 82] | < 5 | < 0.5
O=c1c2ccsc2nc(-c2ccc(-c3ccccc3)cc2)n1CCC1CCOCC1 [Example 47] | < 5 | –
O=c1c2sccc2nc(-c2ccc(-c3cc(Cl)cc(Cl)c3)cc2)n1CCN1CCCCC1 [Example 92] | < 5 | < 0.5
Cc1cc2nc(-c3ccc(-c4cccc(Cl)c4)cc3)n(CCN3CCCCC3)c(=O)c2s1 [Example 86] | < 5 | < 0.5
Cc1cc2nc(-c3ccc(-c4c(Cl)cccc4Cl)cc3)n(CCN3CCCCC3)c(=O)c2s1 [Example 90] | < 5 | < 0.5
O=c1c2sccc2nc(-c2ccc(-c3ccccc3C(F)(F)F)cc2)n1CCN1CCCCC1 [Example 66] | < 5 | < 0.5
Cc1csc2c(=O)n(CCN3CCCCC3)c(-c3ccc(-c4ccccc4)cc3)nc12 [Example 46] | < 5 | < 0.5
O=c1c2occc2nc(-c2ccc(-c3ccccc3)cc2)n1CCN1CCCCC1 [Example 51] | < 5 | –
O=c1c2sccc2nc(-c2ccc(-c3ccccc3F)cc2)n1CCN1CCCCC1 [Example 69] | < 5 | < 0.5
Cc1cccc(C)c1-c1ccc(-c2nc3ccsc3c(=O)n2CCN2CCCCC2)cc1 [Example 81] | < 5 | < 0.5
O=c1c2sccc2nc(-c2ccc3[nH]c4ccccc4c3c2)n1CCN1CCCCC1 [Example 52] | < 5 | –
O=c1c2sccc2nc(-c2ccc(-c3ccccc3)cc2)n1CCN1CCCCCC1 [Example 34] | < 5 | < 0.5
Cc1sc2c(=O)n(CCN3CCCCC3)c(-c3ccc(-c4ccccc4)cc3)nc2c1C [Example 55] | < 5 | < 0.5
Cc1ccc(-c2ccc(-c3nc4ccsc4c(=O)n3CCN3CCCCC3)cc2)cc1C [Example 60] | < 5 | < 0.5
Cc1ccccc1-c1ccc(-c2nc3c(C)c(C)sc3c(=O)n2CCN2CCCCC2)cc1 [Example 75] | < 5 | < 0.5
O=c1c2sccc2nc(-c2ccc(-c3ccc(F)cc3)cc2)n1CCN1CCCCC1 [Example 73] | < 5 | < 0.5
O=c1c2sccc2nc(-c2ccc(-c3ccccc3)cc2)n1CCN1CCCC1 [Example 26] | < 5 | < 0.5
